Laboratory results as given in ChEMBL document CHEMBL2321761, “Discovery of novel dual inhibitors of the wild-type and the most prevalent drug-resistant mutant, S31N, of the M2 proton channel from influenza A virus” (J Med Chem, 2013).
Active and inactive are the calls of the source. No cut-off for these calls is given here.

Experiments:
Influenza A virus [1] = assay: Antiviral activity against influenza A virus A/WSN/33-S31N infected in dog MDCK cells after 2 days by naphthalene black dye staining based plaque reduction assay; assay type: functional, organism-based
Influenza A virus [2] = assay: Antiviral activity against wild type influenza A virus A/WSN/33-N31S infected in dog MDCK cells at 1 uM after 2 days by naphthalene black dye staining based plaque reduction assay; assay type: functional, organism-based

## Oc1ccc(CNC23CC4CC(CC(C4)C2)C3)c(O)c1
Influenza A virus [1]
  EC50: 3.2 µM
Influenza A virus [2]
  inhibition: Active

## NC12CC3CC(CC(C3)C1)C2 [AMANTADINE]
Influenza A virus [1]
  EC50: 22.5 µM
